Target: human PD-L1 (Homo sapiens (Human), UniProt Q9NZQ7)
Test: T cell activation luciferase reporter cell culture system (T Cell Activation Assay)
Format: cell-based
Settings: luciferase reporter assay; PD-L1 aAPC/CHO-K1 cells with PD-1 effector Jurkat T cells

human PD-L1, sequence (Q9NZQ7 19-290): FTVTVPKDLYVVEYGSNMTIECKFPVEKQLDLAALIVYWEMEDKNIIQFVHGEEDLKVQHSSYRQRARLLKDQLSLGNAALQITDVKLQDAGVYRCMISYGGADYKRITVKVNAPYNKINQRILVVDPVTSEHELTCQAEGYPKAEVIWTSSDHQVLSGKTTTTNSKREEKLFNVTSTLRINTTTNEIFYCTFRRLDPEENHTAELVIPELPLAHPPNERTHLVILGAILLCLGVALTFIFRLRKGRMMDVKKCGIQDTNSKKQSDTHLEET

Q: COc1nc(O[C@H]2CCc3c(-c4nccc(-c5ccc6c(CNC[C@@H]7CCC(=O)N7)cn(C)c6n5)c4Cl)cccc32)c(C(F)(F)F)cc1CNC[C@@H]1CCC(=O)N1 [Example 545, (S)-5-((((6-(3-Chloro-2-((S)-1-((6-methoxy-5-(((((S)-5-oxopyrrolidin-2-yl)methyl)amino)methyl)-3-(trifluoromethyl)pyridin-2-yl)oxy)-2,3-dihydro-1H-inden-4-yl)pyridin-4-yl)-1-methyl-1H-pyrrolo[2,3-b]pyridin-3-yl)methyl)amino)methyl)pyrrolidin-2-one] was tested. Which EC50 did it give?
A: 21.3 nM

Q: How did the EC50 turn out when COc1nc(-c2ccnc(-c3cccc4c3CC[C@@H]4Oc3nc(OC)c(CNC[C@H](C)O)cc3C(F)(F)F)c2Cl)ccc1CN1CC2(CNC(=O)C2)C1 [Example 553, 2-((3′-Chloro-2′-((S)-1-((5-((((S)-2-hydroxypropyl)amino)methyl)-6-methoxy-3-(trifluoromethyl)pyridin-2-yl)oxy)-2,3-dihydro-1H-inden-4-yl)-6-methoxy-[2,4′-bipyridin]-5-yl)methyl)-2,6-diazaspiro[3.4]octan-7-one] was run?
A: 53 nM

Q: Which EC50 does the source give for COc1cc(-c2ncnc(-c3cccc(-c4ccc(CN5CC6(CNC(=O)C6)C5)c(OC)n4)c3Cl)c2Cl)ccc1CN1CC2(CNC(=O)C2)C1 [Example 554, 2-((6-(2-chloro-3-(5-chloro-6-(3-methoxy-4-((7-oxo-2,6-diazaspiro[3.4]octan-2-yl)methyl)phenyl)pyrimidin-4-yl)phenyl)-2-methoxypyridin-3-yl)methyl)-2,6-diazaspiro[3.4]octan-7-one] here?
A: 103 nM

Q: With COc1cc(-c2nccc(-c3cccc(-c4ccc5c(CNCC6CCOCC6)cn(C)c5n4)c3Cl)c2Cl)ccc1CNC1CCN(C(C)=O)CC1 [Example 557, 1-(4-((4-(3-chloro-4-(2-chloro-3-(1-methyl-3-((((tetrahydro-2H-pyran-4-yl)methyl)amino)methyl)-1H-pyrrolo[2,3-b]pyridin-6-yl)phenyl)pyridin-2-yl)-2-methoxybenzyl)amino)piperidin-1-yl)ethan-1-one] as the compound, how does the EC50 read?
A: 378 nM

Q: For COc1cc(-c2nccc(-c3cccc(-c4ccc5c(CNC6CCS(=O)(=O)CC6)cn(C)c5n4)c3Cl)c2Cl)ccc1CNC1CCN(C(C)=O)CC1 [Example 558, 1-(4-((4-(3-Chloro-4-(2-chloro-3-(3-(((1,1-dioxidotetrahydro-2H-thiopyran-4-yl)amino)methyl)-1-methyl-1H-pyrrolo[2,3-b]pyridin-6-yl)phenyl)pyridin-2-yl)-2-methoxybenzyl)amino)piperidin-1-yl)ethan-1-one], which EC50 is on record?
A: ≥ 10000 nM

Q: Which EC50 does the source give for COc1nc(-c2cccc(-c3ccnc(-c4ccc5c(c4)S(=O)(=O)CCN(C)C5)c3Cl)c2Cl)ccc1CNC[C@@H]1CCC(=O)N1 [Example 561, (S)-5-((((6-(2-Chloro-3-(3-chloro-2-(4-methyl-1,1-dioxido-2,3,4,5-tetrahydrobenzo[f][1,4]thiazepin-8-yl)pyridin-4-yl)phenyl)-2-methoxypyridin-3-yl)methyl)amino)methyl)pyrrolidin-2-one] here?
A: ≥ 10000 nM

Q: COc1cc(-c2ncnc(-c3cccc(-c4ccc(CN5CCN(C(C)=O)CC5)c(OC)n4)c3Cl)c2Cl)ccc1CN1CCN(C(C)=O)CC1 [Example 562, 1-(4-((6-(3-(6-(4-((4-acetylpiperazin-1-yl)methyl)-3-methoxyphenyl)-5-chloropyrimidin-4-yl)-2-chlorophenyl)-2-methoxypyridin-3-yl)methyl)piperazin-1-yl)ethan-1-one] was tested. Which EC50 did it give?
A: ≥ 10000 nM

Q: Which EC50 does the source give for COc1cc(-c2ncnc(-c3cccc(-c4ccc(CN5CC6(CC(O)C6)C5)c(OC)n4)c3Cl)c2Cl)ccc1CN1CC2(CC(O)C2)C1 [Example 568, 2-((6-(2-chloro-3-(5-chloro-6-(4-((6-hydroxy-2-azaspiro[3.3]heptan-2-yl)methyl)-3-methoxyphenyl)pyrimidin-4-yl)phenyl)-2-methoxypyridin-3-yl)methyl)-2-azaspiro[3.3]heptan-6-ol] here?
A: 187 nM

Q: COc1cc(-c2nccc(-c3cccc(-c4ccc(CN5CC6(CC(=O)N(C)C6)C5)c(OC)n4)c3Cl)c2Cl)ccc1CN1CC2(CC(=O)N(C)C2)C1 [Example 571, 2-(4-(3-chloro-4-(2-chloro-3-(6-methoxy-5-((6-methyl-7-oxo-2,6-diazaspiro[3.4]octan-2-yl)methyl)pyridin-2-yl)phenyl)pyridin-2-yl)-2-methoxybenzyl)-6-methyl-2,6-diazaspiro[3.4]octan-7-one] was tested. Which EC50 did it give?
A: 87.5 nM

Q: For COc1cc(-c2nccc(-c3cccc(-c4ccc(CN5CC6(CNC(=O)C6)C5)c(OC)n4)c3C(F)(F)F)c2Cl)ccc1CN1CC2(CNC(=O)C2)C1 [Example 576, 2-((6-(3-(3-chloro-2-(3-methoxy-4-((7-oxo-2,6-diazaspiro[3.4]octan-2-yl)methyl)phenyl)pyridin-4-yl)-2-(trifluoromethyl)phenyl)-2-methoxypyridin-3-yl)methyl)-2,6-diazaspiro[3.4]octan-7-one], which EC50 is on record?
A: ≥ 10000 nM

Q: COc1cc(-c2nccc(-c3cccc(-c4ccc(CN5CC6(C5)CN(C(C)=O)C6)c(OC)n4)c3C(F)(F)F)c2Cl)ccc1CN1CC2(C1)CN(C(C)=O)C2 [Example 577, 1-(6-((6-(3-(2-(4-((6-Acetyl-2,6-diazaspiro[3.3]heptan-2-yl)methyl)-3-methoxyphenyl)-3-chloropyridin-4-yl)-2-(trifluoromethyl)phenyl)-2-methoxypyridin-3-yl)methyl)-2,6-diazaspiro[3.3]heptan-2-yl)ethan-1-one] was tested. Which EC50 did it give?
A: ≥ 10000 nM

Q: With COc1cc(-c2nccc(-c3cccc(-c4ccc(CNC[C@H](C)O)c(OC)n4)c3C(F)(F)F)c2Cl)ccc1CNC[C@H](C)O [Example 580, (S)-1-(((6-(3-(3-Chloro-2-(4-((((S)-2-hydroxypropyl)amino)methyl)-3-methoxyphenyl)pyridin-4-yl)-2-(trifluoromethyl)phenyl)-2-methoxypyridin-3-yl)methyl)amino)propan-2-ol] as the compound, how does the EC50 read?
A: ≥ 10000 nM

Q: For COc1cc(-c2ncnc(-c3cccc(-c4ccc(CNCCO)c(OC)n4)c3Cl)c2Cl)ccc1CNCCO [Example 581, 2-(((6-(2-chloro-3-(5-chloro-6-(4-(((2-hydroxyethyl)amino)methyl)-3-methoxyphenyl)pyrimidin-4-yl)phenyl)-2-methoxypyridin-3-yl)methyl)amino)ethan-1-ol], which EC50 is on record?
A: 43.1 nM

Q: With CCOc1cc(-c2nccc(-c3cccc(-c4ccc(CNC5CCN(C(C)=O)CC5)c(OC)n4)c3Cl)c2Cl)cn2nc(CN[C@H]3CC[C@H](O)CC3)nc12 [Example 583, 1-(4-(((6-(2-Chloro-3-(3-chloro-2-(8-ethoxy-2-((((1r,4r)-4-hydroxycyclohexyl)amino)methyl)-[1,2,4]triazolo[1,5-a]pyridin-6-yl)pyridin-4-yl)phenyl)-2-methoxypyridin-3-yl)methyl)amino)piperidin-1-yl)ethan-1-one] as the compound, how does the EC50 read?
A: ≥ 10000 nM

Q: CCOc1cc(-c2nccc(-c3cccc(-c4ccc(CNC5CCN(C(C)=O)CC5)c(OC)n4)c3Cl)c2Cl)cn2nc(CNC3CCN(C(C)=O)CC3)nc12 [Example 585, 1-(4-(((6-(4-(3-(5-(((1-Acetylpiperidin-4-yl)amino)methyl)-6-methoxypyridin-2-yl)-2-chlorophenyl)-3-chloropyridin-2-yl)-8-ethoxy-[1,2,4]triazolo[1,5-a]pyridin-2-yl)methyl)amino)piperidin-1-yl)ethan-1-one] was tested. Which EC50 did it give?
A: ≥ 10000 nM

Q: For CCOc1cc(-c2nccc(-c3cccc(-c4ccc(CNC5CCN(C(C)=O)CC5)c(OC)n4)c3Cl)c2Cl)cn2nc(CN3CC4(CNC(=O)C4)C3)nc12 [Example 586, 2-((6-(4-(3-(5-(((1-Acetylpiperidin-4-yl)amino)methyl)-6-methoxypyridin-2-yl)-2-chlorophenyl)-3-chloropyridin-2-yl)-8-ethoxy-[1,2,4]triazolo[1,5-a]pyridin-2-yl)methyl)-2,6-diazaspiro[3.4]octan-7-one], which EC50 is on record?
A: 205 nM

Q: How did the EC50 turn out when COc1cc(-c2nccc(-c3cccc(-c4ccc(CN[C@H]5CC[C@H](O)CC5)c(OC)n4)c3C(F)(F)F)c2Cl)ccc1CN[C@H]1CC[C@H](O)CC1 [Example 588, (1r,4r)-4-(((6-(3-(3-Chloro-2-(4-((((1r,4r)-4-hydroxycyclohexyl)amino)methyl)-3-methoxyphenyl)pyridin-4-yl)-2-(trifluoromethyl)phenyl)-2-methoxypyridin-3-yl)methyl)amino)cyclohexan-1-ol] was run?
A: ≥ 10000 nM

Q: How did the EC50 turn out when COc1cc(-c2ncnc(-c3cccc(-c4ccc(CN5CC6(C5)CN(C(C)=O)C6)c(OC)n4)c3Cl)c2Cl)ccc1CN1CC2(C1)CN(C(C)=O)C2 [Example 589, 1-(6-((6-(3-(6-(4-((6-Acetyl-2,6-diazaspiro[3.3]heptan-2-yl)methyl)-3-methoxyphenyl)-5-chloropyrimidin-4-yl)-2-chlorophenyl)-2-methoxypyridin-3-yl)methyl)-2,6-diazaspiro[3.3]heptan-2-yl)ethan-1-one] was run?
A: ≥ 10000 nM

Q: COc1cc(-c2nccc(-c3cccc(NC(=O)c4ccc(CN5CC6(CNC(=O)C6)C5)cn4)c3C)c2Cl)ccc1CN1CC2(CNC(=O)C2)C1 [Example 590, N-(3-(3-Chloro-2-(3-methoxy-4-((7-oxo-2,6-diazaspiro[3.4]octan-2-yl)methyl)phenyl)pyridin-4-yl)-2-methylphenyl)-5-((7-oxo-2,6-diazaspiro[3.4]octan-2-yl)methyl)picolinamide] was tested. Which EC50 did it give?
A: 1200 nM

Q: Which EC50 does the source give for COc1cc(-c2ncnc(-c3cccc(-c4ccc(CN[C@H]5C[C@@H](O)C5)c(OC)n4)c3Cl)c2Cl)ccc1CN[C@H]1C[C@@H](O)C1 [Example 592, (1s,3s)-3-(((6-(2-Chloro-3-(5-chloro-6-(4-((((1s,3s)-3-hydroxycyclobutyl)amino)methyl)-3-methoxyphenyl)pyrimidin-4-yl)phenyl)-2-methoxypyridin-3-yl)methyl)amino)cyclobutan-1-ol] here?
A: 86.4 nM

Q: For COc1nc(-c2cccc(-c3ccnc(-c4cc(OC)c5nc(CN[C@H]6C[C@](C)(O)C6)nn5c4)c3Cl)c2Cl)ccc1CNC1CCN(C(C)=O)CC1 [Example 596, 1-(4-(((6-(2-Chloro-3-(3-chloro-2-(2-((((1r,3r)-3-hydroxy-3-methylcyclobutyl)amino)methyl)-8-methoxy-[1,2,4]triazolo[1,5-a]pyridin-6-yl)pyridin-4-yl)phenyl)-2-methoxypyridin-3-yl)methyl)amino)piperidin-1-yl)ethan-1-one], which EC50 is on record?
A: 350 nM

— patent publication US20240246964A1 (Arbutus Biopharma Corporation, priority 2021, published 2024)
